According to patent publication US20190292215A1, “COMPOUNDS, COMPOSITIONS, AND METHODS FOR THE TREATMENT OF DISEASE” (Sperovie Biosciences, Inc., priority 2016, published 2019):

Tested on: IFN-β
Experiment: Semi-quantitative RT-PCR of IFN-β gene expression in THP1-Dual / KO STING cells
Format: cell-based
Settings: THP1-WT, treated 5 or 22 hrs; Cmd 1 alone (no lipo)
Method: RNA samples were prepared using Qiagen RNeasy kit and the expression of IFNβ, IRF7 and housekeeper gene β-actin was determined using semi-quantitative reverse transcription (RT)-PCR (started with equal amounts of RNA). PCR products were subjected to 1% agarose gel electrophoresis.
Lipofectamine 2000 also activates IFN-β gene, but cells were treated with Cmd 1 alone (no lipo). DMSO is the negative control.

Nc1nc2c(ncn2[C@@H]2O[C@@H]3COP(=O)(O)O[C@H]4[C@@H](O)[C@H](n5cnc6c(N)ncnc65)O[C@@H]4COP(=O)(O)O[C@@H]2[C@@H]3O)c(=O)[nH]1 [2′3′-cGAMP]
Time to induce IFN-β gene expression: ≤ 5 h
